Target: H1047R PIK3CA enzyme (Homo sapiens, UniProt P42336, H1047R)
Assay: ADP-Glo Biochemical PIK3CA Kinase Assay

Chain of H1047R PIK3CA enzyme (P42336 whole entry H1047R): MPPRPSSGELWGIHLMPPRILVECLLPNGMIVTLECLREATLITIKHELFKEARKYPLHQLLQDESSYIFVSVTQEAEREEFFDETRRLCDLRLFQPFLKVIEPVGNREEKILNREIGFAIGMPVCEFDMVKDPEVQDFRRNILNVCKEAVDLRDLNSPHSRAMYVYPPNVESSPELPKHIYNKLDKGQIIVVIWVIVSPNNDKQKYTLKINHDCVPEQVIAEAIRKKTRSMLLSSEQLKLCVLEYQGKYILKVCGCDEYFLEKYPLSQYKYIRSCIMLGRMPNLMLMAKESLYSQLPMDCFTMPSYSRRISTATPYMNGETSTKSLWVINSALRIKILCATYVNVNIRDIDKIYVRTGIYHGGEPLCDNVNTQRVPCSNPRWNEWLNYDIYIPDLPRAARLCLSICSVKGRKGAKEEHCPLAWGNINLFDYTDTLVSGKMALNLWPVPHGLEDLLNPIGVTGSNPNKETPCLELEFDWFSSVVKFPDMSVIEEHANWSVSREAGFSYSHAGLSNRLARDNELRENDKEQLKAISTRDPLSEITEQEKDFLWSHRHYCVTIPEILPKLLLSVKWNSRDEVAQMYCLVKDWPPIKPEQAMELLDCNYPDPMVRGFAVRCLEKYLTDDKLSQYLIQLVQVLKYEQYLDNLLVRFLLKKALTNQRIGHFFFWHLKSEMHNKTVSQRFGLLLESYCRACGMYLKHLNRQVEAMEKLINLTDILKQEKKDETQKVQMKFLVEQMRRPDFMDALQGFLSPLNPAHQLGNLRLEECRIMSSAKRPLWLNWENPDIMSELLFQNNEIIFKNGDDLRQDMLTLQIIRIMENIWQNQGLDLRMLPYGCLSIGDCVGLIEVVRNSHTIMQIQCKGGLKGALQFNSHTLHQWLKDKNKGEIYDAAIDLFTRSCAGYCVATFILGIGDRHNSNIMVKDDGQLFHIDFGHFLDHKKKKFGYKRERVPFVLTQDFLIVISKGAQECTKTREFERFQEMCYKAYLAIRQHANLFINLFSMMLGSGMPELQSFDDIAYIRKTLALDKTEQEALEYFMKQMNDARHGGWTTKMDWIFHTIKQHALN
Chain of H1047R PIK3CA enzyme (P27986 whole entry partner): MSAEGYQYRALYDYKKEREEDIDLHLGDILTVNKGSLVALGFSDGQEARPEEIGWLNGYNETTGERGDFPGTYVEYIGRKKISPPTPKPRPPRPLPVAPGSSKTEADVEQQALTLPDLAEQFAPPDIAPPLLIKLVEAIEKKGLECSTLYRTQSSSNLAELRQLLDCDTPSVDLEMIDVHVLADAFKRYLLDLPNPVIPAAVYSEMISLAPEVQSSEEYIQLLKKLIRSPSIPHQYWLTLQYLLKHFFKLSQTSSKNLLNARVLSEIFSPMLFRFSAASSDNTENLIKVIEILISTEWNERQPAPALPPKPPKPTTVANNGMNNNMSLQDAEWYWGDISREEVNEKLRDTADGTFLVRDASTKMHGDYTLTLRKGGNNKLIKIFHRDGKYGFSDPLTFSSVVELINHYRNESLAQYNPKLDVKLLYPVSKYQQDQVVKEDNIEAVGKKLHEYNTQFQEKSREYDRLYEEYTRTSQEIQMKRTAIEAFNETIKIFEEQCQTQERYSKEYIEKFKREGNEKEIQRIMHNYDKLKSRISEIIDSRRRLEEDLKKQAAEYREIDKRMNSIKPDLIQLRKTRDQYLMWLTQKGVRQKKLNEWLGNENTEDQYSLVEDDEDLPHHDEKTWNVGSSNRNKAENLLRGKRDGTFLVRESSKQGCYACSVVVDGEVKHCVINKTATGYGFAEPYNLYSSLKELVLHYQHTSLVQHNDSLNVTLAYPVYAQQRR

Row | Compound | IC50 [µM]
1 | O=C(Nc1cc(N2CC(C(F)F)C2)nc2c1C(c1cc(F)ccc1Cl)NC2=O)c1cc(F)cc(C(F)(F)F)c1 (centres unmarked) [Compound I-487] | ≤ 0.1
2 | O=C(Nc1cc(-c2cncc(F)c2)nc2c1C(c1cc(F)ccc1Cl)NC2=O)c1cc(F)cc(C(F)(F)F)c1 (centres unmarked) [Compound I-585] | ≤ 0.1
3 | O=C(Nc1cc(Br)cc2c1C(c1cc(F)ccc1Cl)NC2=O)c1cc(F)cc(CC(F)F)c1 (centres unmarked) [Compound I-1745] | 1 to 10
4 | O=C(Nc1cccc2c1C(N1CCCCC1)NC2=O)c1cc(F)cc(C(F)(F)F)c1 (centres unmarked) [Compound I-537] | 10 to 100
5 | O=C1NC(c2cc(F)ccc2Cl)c2c(NC(=O)c3cccc4c(Cl)c[nH]c34)cc(Br)cc21 (centres unmarked) [Compound I-1271] | 0.5 to 1
6 | CC(C)(O)c1cc(NC(=O)c2cc(F)cc(C(F)(F)F)c2)c2c(n1)C(=O)NC2c1cc(F)ccc1Cl (centres unmarked) [Compound I-242] | 0.1 to 0.5
7 | O=C1NC(c2cccc(F)c2F)c2c(NC(=O)c3nsc4ccccc34)ccnc21 (centres unmarked) [Compound I-175] | 0.5 to 1
8 | O=C1NC(c2cc(F)ccc2Cl)c2c(NC(=O)C34CC5CC(CC(O)(C5)C3)C4)cc(Br)cc21 (centres unmarked) [Compound I-1363] | 1 to 10
9 | N#Cc1cncn1Cc1cc(NC(=O)c2cc(F)cc(C(F)(F)F)c2)c2c(c1)C(=O)N[C@@H]2c1cc(F)ccc1Cl (stereo in doubt) [Compound I-1749] | 0.1 to 0.5
10 | CC(=O)N[C@H]1CCC[C@H](C(=O)Nc2cc(-c3ccc4ncnn4c3)cc3c2C(c2cc(F)ccc2Cl)NC3=O)C1 (mixture of isomers) [Compound I-1843] | 10 to 100
11 | COc1ccccc1C(=O)Nc1cc(Br)cc2c1C(c1cc(F)ccc1Cl)NC2=O (centres unmarked) [Compound I-471] | 10 to 100
12 | Nc1ncc(C#Cc2cc(NC(=O)c3cc(F)cc(C(F)(F)F)c3)c3c(c2)C(=O)NC3c2cc(F)ccc2Cl)cn1 (centres unmarked) [Compound I-1153] | ≤ 0.1
13 | O=C(Nc1cc(C(O)c2ccccn2)cc2c1C(c1cc(F)ccc1Cl)NC2=O)c1cc(F)cc(C(F)(F)F)c1 (centres unmarked) [Compound I-1278] | ≤ 0.1
14 | Cc1ncc(-c2cc(NC(=O)c3cc(F)cc(Cl)c3)c3c(c2)C(=O)NC3c2cc(F)ccc2Cl)cn1 (centres unmarked) [Compound I-849] | ≤ 0.1
15 | CC(C)(O)CNc1cc(NC(=O)c2cc(F)cc(C(F)(F)F)c2)c2c(c1)C(=O)NC2c1cc(F)ccc1Cl (centres unmarked) [Compound I-730] | ≤ 0.1
16 | CC(=O)N1CCC[C@@H](Oc2cc(NC(=O)c3cc(F)cc(C(F)(F)F)c3)c3c(c2)C(=O)NC3c2cc(F)ccc2Cl)C1 (single isomer, unassigned) [Compound I-1431] | ≤ 0.1
17 | O=C(Nc1cc(-c2ccc3ncnn3c2)cc2c1[C@@H](c1cc(F)ccc1C(F)F)NC2=O)c1cc(F)cc(C(F)(F)F)c1 (stereo in doubt) [Compound I-1055] | 1 to 10
18 | O=C(Nc1cc(-c2ccc3nccn3n2)cc2c1[C@H](c1cc(F)ccc1Cl)NC2=O)c1cc(F)cc(C(F)(F)F)c1 [Compound I-1332] | ≤ 0.1
19 | CP(C)(=O)c1cc(NC(=O)c2cc(F)cc(C(F)(F)F)c2)c2c(c1)C(=O)NC2c1cc(F)ccc1Cl (centres unmarked) [Compound I-395] | ≤ 0.1
20 | Cc1ccccc1C1NC(=O)c2c(C)ccc(NC(=O)c3csc4ccccc34)c21 (centres unmarked) [Compound I-153, N-(7-Methyl-1-oxo-3-(o-tolyl)isoindolin-4-yl)benzo[b]thiophene-3-carboxamide] | 0.1 to 0.5
21 | Cn1ccc(-c2cc(NC(=O)c3cc(F)cc(C(F)(F)F)c3)c3c(c2)C(=O)N[C@H]3c2cc(F)ccc2Cl)cc1=O (stereo in doubt) [Compound I-1001] | 1 to 10
22 | N#CC1(CNc2cc(NC(=O)c3cc(F)cc(C(F)(F)F)c3)c3c(c2)C(=O)N[C@@H]3c2cc(F)ccc2Cl)CC1 [Compound I-869] | 0.1 to 0.5
23 | O=C(Nc1cccc2c1C(c1cc(F)ccc1Cl)NC2=O)c1ccccc1 (centres unmarked) [Compound I-1681] | 10 to 100
24 | O=C1Cc2cccc(C3NC(=O)c4cccc(NC(=O)c5cc(F)cc(C(F)(F)F)c5)c43)c2N1 (centres unmarked) [Compound I-810] | 10 to 100
25 | O=C(Cc1n[nH]c2ccccc12)Nc1cc(Br)cc2c1C(c1cc(F)ccc1Cl)NC2=O (centres unmarked) [Compound I-955] | 10 to 100
26 | O=C(Nc1cc(Br)cc2c1C(c1cc(F)ccc1Cl)NC2=O)c1ccnc(C(F)(F)F)c1 (centres unmarked) [Compound I-523] | 10 to 100

The remaining lines, values ahead:

Row | IC50 [µM] | Compound
27 | 1 to 10 | O=C1N[C@@H](c2cc(F)ccc2Cl)c2c(NC(=O)N3C[C@@H](O)c4c(F)cccc43)cccc21 (single isomer, unassigned) [Compound I-2144]
28 | 10 to 100 | C[C@@H](O)c1cc(-c2ccc3ncnn3c2)cc2c1[C@@H](c1cc(F)ccc1Cl)NC2=O (single isomer, unassigned) [Compound I-2230]
29 | 10 to 100 | O=C1NC(c2cc(F)ccc2Cl)c2c(OC3CCOc4ccccc43)cc(-c3ccc4ncnn4c3)cc21 (centres unmarked) [Compound I-2043]
30 | ≤ 0.1 | O=C(Nc1cc(-c2ccnc(C(F)F)c2)cc2c1C(c1cc(F)ccc1Cl)NC2=O)c1cc(F)cc(C(F)(F)F)c1 (centres unmarked) [Compound I-1933]
31 | 0.1 to 0.5 | O=C(Nc1cc(/N=C2\OC[C@H]3CCCN23)cc2c1C(c1cc(F)ccc1Cl)NC2=O)c1cc(F)cc(C(F)(F)F)c1 (some centres unmarked) [Compound I-2354]
32 | 0.5 to 1 | O=C1NC(c2cc(F)ccc2Cl)c2c(NC(=O)N3CCCC34CCC4)cc(Br)cc21 (centres unmarked) [Compound I-2377]
33 | 10 to 100 | O=C1NC(c2cc(F)ccc2Cl)c2c(NC(=O)N3C[C@@H](O)[C@@H](O)C3)cc(-c3ccc4ncnn4c3)cc21 (some centres unmarked) [Compound I-1965]
34 | 10 to 100 | O=C1NC(c2cc(F)ccc2Cl)c2c(NC(=O)N3CCC(O)(C(F)(F)F)C3)cc(-c3ccc4ncnn4c3)cc21 (centres unmarked) [Compound I-1904]
35 | 1 to 10 | O=C1NC(c2cc(F)ccc2Cl)c2c(NC(=O)C3OCCc4ccccc43)cc(-c3ccc4ncnn4c3)cc21 (centres unmarked) [Compound I-1939]
36 | 10 to 100 | O=C1NC(c2cc(F)ccc2Cl)c2c1cc(-c1ccc3ncnn3c1)cc2N1CCOCC1 (centres unmarked) [Compound I-1911]
37 | 1 to 10 | C=CC(CC(=O)Nc1cccc2c1C(c1cc(F)ccc1Cl)NC2=O)C(C)C(F)(F)F (mixture of isomers) [Compound I-2195]
38 | 1 to 10 | C[C@@H](c1nn[nH]c1C(=O)Nc1cccc2c1[C@H](c1cc(F)ccc1Cl)NC2=O)C(F)(F)F (single isomer, unassigned) [Compound I-2271]
39 | ≤ 0.1 | O=C(Nc1cc(OCC(F)F)cc2c1[C@H](c1cc(F)ccc1Cl)NC2=O)c1cc(F)cc(C(F)(F)F)c1 [Compound I-2062]
40 | 0.1 to 0.5 | O=C(Nc1cc(NC2=NC[C@H](C(F)(F)F)O2)cc2c1[C@H](c1cc(F)ccc1Cl)NC2=O)c1cc(F)cc(C(F)(F)F)c1 (single isomer, unassigned) [Compound I-2323]
41 | 10 to 100 | O=C1NC(c2cc(F)ccc2Cl)c2c(NC(=O)[C@H]3C[C@@H](O)c4ccccc43)cc(Br)cc21 (mixture of isomers) [Compound I-1942]
42 | 1 to 10 | O=C1N[C@H](c2cc(F)ccc2Cl)c2c(NC(=O)N3C[C@](O)(C(F)(F)F)c4cc(F)ccc43)cc(N3CCOC3=O)cc21 (single isomer, unassigned) [Compound I-2674]
43 | 10 to 100 | O=C1CCC[C@@H]([C@@H]2NC(=O)c3cccc(NC(=O)c4cc(F)cc(C(F)(F)F)c4)c32)C1 (single isomer, unassigned) [Compound I-2255]
44 | 10 to 100 | O=C1NC(c2cc(F)ccc2Cl)c2c(NC(=O)C3COCCO3)cc(-c3ccc4ncnn4c3)cc21 (centres unmarked) [Compound I-1910]
